Among the data in US20250154109A1, “SODIUM CHANNEL BLOCKING COMPOUNDS, DERIVATIVES THEREOF, AND METHODS OF THEIR USE” (LATIGO BIOTHERAPEUTICS, INC, priority 2022, published 2025) are IC50 values, retold here.

The assay addresses human Nav1.8 (Homo sapiens, UniProt Q9Y5Y9). The assay is described as follows: SyncroPatch384PE assay (automated patch clamp). As to conditions: human Nav1.8/b3 CHO cells. In kind it is cell-based. The procedure:
Compounds were tested on recombinant human Nav1.8/b3 stably transfected CHO cells using the SyncroPatch384PE system (Nanion Technologies), an automated patch clamp device. Cells were cultured at 37° C./5% CO2 in Ham's F-12 supplemented with 10% fetal bovine serum, 100 U/mL penicillin G sodium, […] streptomycin sulfate and selection antibiotics (0.01 mg/mL Blasticidin, 0.4 mg/mL Zeocin and 0.25 mg/mL Hygromycin). On the day of the recordings, cells in culture dishes were washed twice with Hank's Balanced Salt Solution (HBSS) and treated with Accutase for approximately 20 minutes. Immediately before use in the SynchroPatch384PE using an 8-hole NPC-384 chip, the cells were washed in HBSS to remove the Accutase and re-suspended in extracellular solution. All experiments were performed at ambient temperature. Intracellular solution contained (mM): CsCl, 50; CsF, 90; MgCl2, 5; EGTA, 1; HEPES, 10; pH adjusted to 7.2 with CsOH. Extracellular solution contained (mM): NaCl, 137; KCl, 4.0; CaCl2), 3.8; MgCl2, 1; HEPES, 10; Glucose, 10; pH adjusted to 7.4 with NaOH. 100 nM tetrodotoxin (TTX) was added to the extracellular solution to block endogenous TTX-sensitive sodium currents.
Compounds were tested in quadruplicate in 0.3% DMSO and 0.03% pluronic Acid. Compounds were diluted 1:3.33 in extracellular solution to create an 8-point concentration response curve. Each plate contained a historical positive control and up to ten compounds. 300 μM tetracaine and 0.3% DMSO+0.03% pluronic acid were used as high and low controls respectively.
Whole cell patch clamp recordings were conducted according to Nanion's standard procedure for SyncroPatch384PE®. Cells were held at a holding potential of −120 mV. A depolarization step to 10 mV for 30 ms was applied (P1 measurement), followed by a hyperpolarization step to −100 mV for 100 ms. An inactivation step at −35 mV for 10 sec was applied before stepping to −100 mV for 20 ms, followed by a step to 10 mV for 30 ms (P2 measurement) and then back to −100 mV for 30 ms. Sweep interval was 15 sec. Following establishment of the whole-cell configuration in extracellular solution, cells were washed in extracellular solution containing 0.3% DMSO and 0.03% pluronic acid to stabilize the baseline current. Compounds were then applied by the SynchroPatch384 PE system into each well and the current was recorded for five minutes in extracellular solution, followed by application of tetracaine to achieve full block at the end of experiment. The potency of the compounds was assessed on two read-outs, resting state block (P1 measurement) or inactivated state block (P2 measurement) to obtain IC50 values. Values were normalized to high (tetracaine) and low (DMSO+pluronic acid) controls.
Examples 1 to 219 and Examples 225 to 236 are assayed using SyncroPatch384PE assay described above.
Background: The patch-clamp technique gives a direct electrical read-out from membranes.

The mark [1] stands for this setting: inactivated state block (P2 measurement), read-out: P2 IC50.
The mark [2] stands for this setting: resting state block (P1 measurement), read-out: P1 IC50.

Like-named read-outs stand apart in the source and are kept apart here. Bounds are passed on as bounds.

human Nav1.8, sequence (Q9Y5Y9 whole entry): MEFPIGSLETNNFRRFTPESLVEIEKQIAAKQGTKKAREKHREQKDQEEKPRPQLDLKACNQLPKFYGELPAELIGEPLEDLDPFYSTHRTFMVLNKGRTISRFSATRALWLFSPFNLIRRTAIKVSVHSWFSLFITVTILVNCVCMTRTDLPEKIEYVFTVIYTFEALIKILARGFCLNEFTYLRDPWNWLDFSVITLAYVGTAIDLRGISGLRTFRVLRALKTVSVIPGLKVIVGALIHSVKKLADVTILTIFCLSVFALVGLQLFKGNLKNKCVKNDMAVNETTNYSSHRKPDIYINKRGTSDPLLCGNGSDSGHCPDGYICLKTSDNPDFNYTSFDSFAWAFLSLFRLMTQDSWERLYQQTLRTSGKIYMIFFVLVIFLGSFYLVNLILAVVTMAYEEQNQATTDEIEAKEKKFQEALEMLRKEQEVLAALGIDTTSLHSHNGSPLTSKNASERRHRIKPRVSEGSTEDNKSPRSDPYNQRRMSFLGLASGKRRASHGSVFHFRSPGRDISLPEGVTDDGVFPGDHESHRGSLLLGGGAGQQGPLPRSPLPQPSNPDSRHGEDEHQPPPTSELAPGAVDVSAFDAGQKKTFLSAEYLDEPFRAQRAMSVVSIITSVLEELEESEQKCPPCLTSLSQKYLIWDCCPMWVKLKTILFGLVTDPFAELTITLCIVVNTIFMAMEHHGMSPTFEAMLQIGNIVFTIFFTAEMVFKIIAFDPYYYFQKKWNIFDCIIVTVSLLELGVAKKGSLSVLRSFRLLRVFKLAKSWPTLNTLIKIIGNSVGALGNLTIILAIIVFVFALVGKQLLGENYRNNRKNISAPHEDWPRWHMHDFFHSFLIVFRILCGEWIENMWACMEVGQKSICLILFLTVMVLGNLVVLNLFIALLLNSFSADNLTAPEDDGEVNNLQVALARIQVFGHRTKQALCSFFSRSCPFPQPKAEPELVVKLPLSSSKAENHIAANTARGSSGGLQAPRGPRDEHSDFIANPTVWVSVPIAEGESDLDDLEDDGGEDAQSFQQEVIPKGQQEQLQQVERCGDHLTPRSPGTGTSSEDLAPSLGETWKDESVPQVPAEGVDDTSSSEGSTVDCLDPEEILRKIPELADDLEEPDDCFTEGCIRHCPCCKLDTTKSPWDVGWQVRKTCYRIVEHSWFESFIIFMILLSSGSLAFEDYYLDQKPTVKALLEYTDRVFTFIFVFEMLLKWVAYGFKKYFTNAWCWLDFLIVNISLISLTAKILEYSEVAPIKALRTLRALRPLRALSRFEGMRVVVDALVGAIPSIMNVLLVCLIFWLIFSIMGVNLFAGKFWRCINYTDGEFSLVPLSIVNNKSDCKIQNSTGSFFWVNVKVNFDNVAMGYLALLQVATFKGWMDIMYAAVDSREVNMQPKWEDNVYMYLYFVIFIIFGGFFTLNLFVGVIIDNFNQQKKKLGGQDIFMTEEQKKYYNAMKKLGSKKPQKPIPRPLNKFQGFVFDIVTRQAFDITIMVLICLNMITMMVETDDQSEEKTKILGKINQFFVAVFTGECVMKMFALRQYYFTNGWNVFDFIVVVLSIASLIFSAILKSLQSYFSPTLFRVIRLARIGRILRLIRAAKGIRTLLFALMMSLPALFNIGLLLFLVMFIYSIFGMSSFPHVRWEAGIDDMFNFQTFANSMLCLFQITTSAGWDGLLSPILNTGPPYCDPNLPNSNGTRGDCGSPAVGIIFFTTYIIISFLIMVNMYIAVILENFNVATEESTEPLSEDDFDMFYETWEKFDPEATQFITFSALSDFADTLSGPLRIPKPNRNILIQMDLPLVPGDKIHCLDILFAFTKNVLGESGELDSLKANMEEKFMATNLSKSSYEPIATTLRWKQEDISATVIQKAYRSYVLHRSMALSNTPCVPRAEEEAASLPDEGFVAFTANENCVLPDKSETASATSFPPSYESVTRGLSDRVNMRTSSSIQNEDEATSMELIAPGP

On to `C[S@@](=N)(=O)c1cccc(NC(=O)c2c(N3CCCC(F)(F)CC3)ncc(Cl)c2F)c1` [Example 226, (R)-5-chloro-2-(4,4-difluoroazepan-1-yl)-4-fluoro-N-(3-(S-methylsulfonimidoyl)phenyl)nicotinamide], for which the 50% inhibitory concentration (IC50) (in general, the concentration needed to halve the response being measured) under setting [1] is no more than 5 nM and the IC50 under setting [2] is no more than 5 nM.

In the case of `CC#Cc1cnc(N2CCCC(F)(F)CC2)c(C(=O)Nc2cccc([S@](C)(=N)=O)c2)c1C` [Example 127, (R)-2-(4,4-difluoroazepan-1-yl)-4-methyl-N-(3-(S-methylsulfonimidoyl)phenyl)-5-(prop-1-yn-1-yl)nicotinamide], the IC50 by setting is: under setting [1], no more than 5 nM; under setting [2], no more than 5 nM.

On to `C=CCCc1ccc(C(=O)Nc2cccc([S@@](C)(=N)=O)c2)c(N2CCCC(F)(F)CC2)n1` [Example 30, (S)-6-(3-Buten-1-yl)-2-(4,4-difluoroazepan-1-yl)-N-(3-(S-methylsulfonimidoyl)phenyl)nicotinamide], for which the IC50 runs as follows: under setting [1], no more than 5 nM; under setting [2], no more than 5 nM.

Regarding `Cc1c(C(=O)Nc2cccc([S@@](C)(=O)=NC(=O)CO)c2)c(N2CCCC(F)(F)CC2)nc(C(F)(F)F)c1-c1cnn(C)c1` [Example 191, (R)-2-(4,4-difluoroazepan-1-yl)-N-(3-(N-(2-hydroxyacetyl)-S-methylsulfonimidoyl)phenyl)-4-methyl-5-(1-methyl-1H-pyrazol-4-yl)-6-(trifluoromethyl)nicotinamide], the IC50 runs as follows: under setting [1], no more than 5 nM; under setting [2], no more than 5 nM.

For the compound `Cc1c(C(F)(F)F)nnc(N2CCCCCC2)c1C(=O)Nc1cccc(S(C)(=N)=O)c1` (stereo not shown) [Example 7, 3-(azepan-1-yl)-5-methyl-N-(3-(S-methylsulfonimidoyl)phenyl)-6-(trifluoromethyl)pyridazine-4-carboxamide], the IC50 was 100 to 200 nM under setting [1] and 100 to 200 nM under setting [2].

Regarding `Cc1cc(-c2cnn(C)c2)nc(N2CCCC(F)(F)CC2)c1C(=O)Nc1cccc([S@](C)(=N)=O)c1` [Example 151, (R)-2-(4,4-difluoroazepan-1-yl)-4-methyl-6-(1-methyl-1H-pyrazol-4-yl)-N-(3-(S-methylsulfonimidoyl)phenyl)nicotinamide], the half-maximal inhibitory concentration (IC50) lay in the range of 100 to 200 nM under setting [1] and 100 to 200 nM under setting [2].

Regarding `Cc1ccsc1-c1cnc(N2CCCC(F)(F)CC2)c(C(=O)Nc2cccc(S(C)(=N)=O)c2)c1C` (stereo not shown) [Example 113, 2-(4,4-difluoroazepan-1-yl)-4-methyl-N-(3-(S-methylsulfonimidoyl)phenyl)-5-(3-methylthiophen-2-yl)nicotinamide], the IC50 is no more than 5 nM under setting [1] and no more than 5 nM under setting [2].

Regarding `Cc1c(C(F)(F)F)nnc(N2CCCCCC2)c1C(=O)Nc1cccc([S@](C)(=N)=O)c1` [Example 10, (R)-3-(azepan-1-yl)-5-methyl-N-(3-(S-methylsulfonimidoyl)phenyl)-6-(trifluoromethyl)pyridazine-4-carboxamide], the IC50 runs as follows: under setting [1], 50 to 100 nM; under setting [2], 50 to 100 nM.

`O=C(Nc1cc[nH]c(=O)c1)c1nnc(C(F)(F)F)cc1N1CCCC(F)(F)CC1` [Example 40, 4-(4,4-Difluoroazepan-1-yl)-N-(2-oxo-1,2-dihydropyridin-4-yl)-6-(trifluoromethyl)pyridazine-3-carboxamide]: the IC50 under setting [1] was greater than 200 nM and the IC50 under setting [2] was greater than 200 nM.

`Cc1nc(N2CCCC(F)(F)CC2)c(C(=O)Nc2cccc(S(C)(=N)=O)c2)cc1C(F)(F)F` (stereo not shown) [Example 3, 2-(4,4-difluoroazepan-1-yl)-6-methyl-N-(3-(S-methylsulfonimidoyl)phenyl)-5-(trifluoromethyl)nicotinamide]: the IC50 by setting is: under setting [1], no more than 5 nM; under setting [2], no more than 5 nM.

On to `Cc1c(C(F)(F)F)nnc(N2CCCC(F)(F)CC2)c1C(=O)Nc1ccnnc1` [Example 31, 3-(4,4-Difluoroazepan-1-yl)-5-methyl-N-(pyridazin-4-yl)-6-(trifluoromethyl)pyridazine-4-carboxamide], for which the IC50 under setting [1] was greater than 200 nM and the IC50 under setting [2] was greater than 200 nM.
